System: PC-3
Experiment: Cytotoxicity against human PC3 cells after 48 hrs by MTT assay
Format: functional, cell-based
Details: PC-3, 48 h

SMILES	IC50 [µM]
Cc1nc(-c2c[nH]c3ccccc23)co1	337
Cn1cc(-c2coc(-c3ccc(Cl)cc3)n2)c2ccccc21	302
c1ccc(Cc2nc(-c3c[nH]c4ccccc34)co2)cc1	368
COc1ccc(-c2nc(-c3c[nH]c4ccccc34)co2)cc1	133
Oc1ccc(-c2nc(-c3c[nH]c4ccccc34)co2)cc1	382
Clc1ccc(Cn2cc(-c3coc(-c4ccc(Cl)cc4)n3)c3ccccc32)cc1	350
C(=C\c1nc(-c2c[nH]c3ccccc23)co1)/c1ccccc1	221
c1ccc2c(-c3cocn3)c[nH]c2c1	321
Cn1cc(-c2coc(C3CCNCC3)n2)c2ccccc21	578
COc1cc(-c2nc(-c3cn(C)c4ccccc34)co2)ccc1OCc1ccccc1	450
COc1cc(-c2nc(-c3c[nH]c4ccccc34)co2)ccc1O	303
COc1ccc(-c2nc(-c3c[nH]c4ccccc34)co2)cc1OC	359
c1ccc2c(-c3coc(-c4ccncc4)n3)c[nH]c2c1	298
Fc1ccc(-c2nc(-c3c[nH]c4ccccc34)co2)cc1	42.8
c1ccc(-c2nc(-c3c[nH]c4ccccc34)co2)cc1	170
c1ccc2c(-c3coc(C4CCNCC4)n3)c[nH]c2c1	407
Clc1ccc(-c2nc(-c3c[nH]c4ccccc34)co2)cc1	151
C=Cc1nc(-c2c[nH]c3ccccc23)co1	426

System: MIA PaCa-2
Experiment: Cytotoxicity against human MIAPaCa2 cells after 48 hrs by MTT assay
Format: functional, cell-based
Details: MIA PaCa-2, 48 h

SMILES	IC50 [µM]
Cc1nc(-c2c[nH]c3ccccc23)co1	688
Cn1cc(-c2coc(-c3ccc(Cl)cc3)n2)c2ccccc21	89.2
c1ccc(Cc2nc(-c3c[nH]c4ccccc34)co2)cc1	1000
COc1ccc(-c2nc(-c3c[nH]c4ccccc34)co2)cc1	35
Oc1ccc(-c2nc(-c3c[nH]c4ccccc34)co2)cc1	1000
Clc1ccc(Cn2cc(-c3coc(-c4ccc(Cl)cc4)n3)c3ccccc32)cc1	26
C(=C\c1nc(-c2c[nH]c3ccccc23)co1)/c1ccccc1	872
c1ccc2c(-c3cocn3)c[nH]c2c1	1000
Cn1cc(-c2coc(C3CCNCC3)n2)c2ccccc21	759
COc1cc(-c2nc(-c3cn(C)c4ccccc34)co2)ccc1OCc1ccccc1	318
COc1cc(-c2nc(-c3c[nH]c4ccccc34)co2)ccc1O	1000
COc1ccc(-c2nc(-c3c[nH]c4ccccc34)co2)cc1OC	1000
c1ccc2c(-c3coc(-c4ccncc4)n3)c[nH]c2c1	38.4
Fc1ccc(-c2nc(-c3c[nH]c4ccccc34)co2)cc1	40.6
c1ccc(-c2nc(-c3c[nH]c4ccccc34)co2)cc1	113
c1ccc2c(-c3coc(C4CCNCC4)n3)c[nH]c2c1	230
Clc1ccc(-c2nc(-c3c[nH]c4ccccc34)co2)cc1	326
C=Cc1nc(-c2c[nH]c3ccccc23)co1	37.6

System: not listed separately
Experiment: Cytotoxicity against human MDA231 cells after 48 hrs by MTT assay
Format: functional, cell-based
Details: MDA-MB-231, 48 h

SMILES	IC50 [µM]
Cc1nc(-c2c[nH]c3ccccc23)co1	1000
Cn1cc(-c2coc(-c3ccc(Cl)cc3)n2)c2ccccc21	790
c1ccc(Cc2nc(-c3c[nH]c4ccccc34)co2)cc1	1000
COc1ccc(-c2nc(-c3c[nH]c4ccccc34)co2)cc1	108
Oc1ccc(-c2nc(-c3c[nH]c4ccccc34)co2)cc1	1000
Clc1ccc(Cn2cc(-c3coc(-c4ccc(Cl)cc4)n3)c3ccccc32)cc1	216
C(=C\c1nc(-c2c[nH]c3ccccc23)co1)/c1ccccc1	1000
c1ccc2c(-c3cocn3)c[nH]c2c1	1000
Cn1cc(-c2coc(C3CCNCC3)n2)c2ccccc21	1000
COc1cc(-c2nc(-c3cn(C)c4ccccc34)co2)ccc1OCc1ccccc1	1000
COc1cc(-c2nc(-c3c[nH]c4ccccc34)co2)ccc1O	1000
COc1ccc(-c2nc(-c3c[nH]c4ccccc34)co2)cc1OC	1000
c1ccc2c(-c3coc(-c4ccncc4)n3)c[nH]c2c1	105
Fc1ccc(-c2nc(-c3c[nH]c4ccccc34)co2)cc1	90.4
c1ccc(-c2nc(-c3c[nH]c4ccccc34)co2)cc1	171
c1ccc2c(-c3coc(C4CCNCC4)n3)c[nH]c2c1	528
Clc1ccc(-c2nc(-c3c[nH]c4ccccc34)co2)cc1	608
C=Cc1nc(-c2c[nH]c3ccccc23)co1	1000

System: DU-145
Experiment: Cytotoxicity against human DU145 cells after 48 hrs by MTT assay
Format: functional, cell-based
Details: DU-145, 48 h

SMILES	IC50 [µM]
Cc1nc(-c2c[nH]c3ccccc23)co1	244
Cn1cc(-c2coc(-c3ccc(Cl)cc3)n2)c2ccccc21	412
c1ccc(Cc2nc(-c3c[nH]c4ccccc34)co2)cc1	349
COc1ccc(-c2nc(-c3c[nH]c4ccccc34)co2)cc1	164
Oc1ccc(-c2nc(-c3c[nH]c4ccccc34)co2)cc1	247
Clc1ccc(Cn2cc(-c3coc(-c4ccc(Cl)cc4)n3)c3ccccc32)cc1	80.5
C(=C\c1nc(-c2c[nH]c3ccccc23)co1)/c1ccccc1	135
c1ccc2c(-c3cocn3)c[nH]c2c1	93.5
Cn1cc(-c2coc(C3CCNCC3)n2)c2ccccc21	376
COc1cc(-c2nc(-c3cn(C)c4ccccc34)co2)ccc1OCc1ccccc1	382
COc1cc(-c2nc(-c3c[nH]c4ccccc34)co2)ccc1O	175
COc1ccc(-c2nc(-c3c[nH]c4ccccc34)co2)cc1OC	300
c1ccc2c(-c3coc(-c4ccncc4)n3)c[nH]c2c1	178
Fc1ccc(-c2nc(-c3c[nH]c4ccccc34)co2)cc1	31.8
c1ccc(-c2nc(-c3c[nH]c4ccccc34)co2)cc1	167
c1ccc2c(-c3coc(C4CCNCC4)n3)c[nH]c2c1	381
Clc1ccc(-c2nc(-c3c[nH]c4ccccc34)co2)cc1	206
C=Cc1nc(-c2c[nH]c3ccccc23)co1	59.8

System: MCF7
Experiment: Cytotoxicity against human MCF7 cells after 48 hrs by MTT assay
Format: functional, cell-based
Details: MCF7, 48 h

SMILES	IC50 [µM]
Cc1nc(-c2c[nH]c3ccccc23)co1	802
Cn1cc(-c2coc(-c3ccc(Cl)cc3)n2)c2ccccc21	637
c1ccc(Cc2nc(-c3c[nH]c4ccccc34)co2)cc1	1000
COc1ccc(-c2nc(-c3c[nH]c4ccccc34)co2)cc1	43.8
Oc1ccc(-c2nc(-c3c[nH]c4ccccc34)co2)cc1	580
Clc1ccc(Cn2cc(-c3coc(-c4ccc(Cl)cc4)n3)c3ccccc32)cc1	14.1
C(=C\c1nc(-c2c[nH]c3ccccc23)co1)/c1ccccc1	355
c1ccc2c(-c3cocn3)c[nH]c2c1	1000
Cn1cc(-c2coc(C3CCNCC3)n2)c2ccccc21	1000
COc1cc(-c2nc(-c3cn(C)c4ccccc34)co2)ccc1OCc1ccccc1	198
COc1cc(-c2nc(-c3c[nH]c4ccccc34)co2)ccc1O	1000
COc1ccc(-c2nc(-c3c[nH]c4ccccc34)co2)cc1OC	759
c1ccc2c(-c3coc(-c4ccncc4)n3)c[nH]c2c1	54.9
Fc1ccc(-c2nc(-c3c[nH]c4ccccc34)co2)cc1	28
c1ccc(-c2nc(-c3c[nH]c4ccccc34)co2)cc1	131
c1ccc2c(-c3coc(C4CCNCC4)n3)c[nH]c2c1	294
Clc1ccc(-c2nc(-c3c[nH]c4ccccc34)co2)cc1	410
C=Cc1nc(-c2c[nH]c3ccccc23)co1	1000

System: LNCaP
Experiment: Cytotoxicity against human LNCAP cells after 48 hrs by MTT assay
Format: functional, cell-based
Details: not given

SMILES	IC50 [µM]
Cc1nc(-c2c[nH]c3ccccc23)co1	316
Cn1cc(-c2coc(-c3ccc(Cl)cc3)n2)c2ccccc21	378
c1ccc(Cc2nc(-c3c[nH]c4ccccc34)co2)cc1	377
COc1ccc(-c2nc(-c3c[nH]c4ccccc34)co2)cc1	507
Oc1ccc(-c2nc(-c3c[nH]c4ccccc34)co2)cc1	449
Clc1ccc(Cn2cc(-c3coc(-c4ccc(Cl)cc4)n3)c3ccccc32)cc1	182
C(=C\c1nc(-c2c[nH]c3ccccc23)co1)/c1ccccc1	183
c1ccc2c(-c3cocn3)c[nH]c2c1	382
Cn1cc(-c2coc(C3CCNCC3)n2)c2ccccc21	400
COc1cc(-c2nc(-c3cn(C)c4ccccc34)co2)ccc1OCc1ccccc1	368
COc1cc(-c2nc(-c3c[nH]c4ccccc34)co2)ccc1O	445
COc1ccc(-c2nc(-c3c[nH]c4ccccc34)co2)cc1OC	278
c1ccc2c(-c3coc(-c4ccncc4)n3)c[nH]c2c1	238
Fc1ccc(-c2nc(-c3c[nH]c4ccccc34)co2)cc1	59.8
c1ccc(-c2nc(-c3c[nH]c4ccccc34)co2)cc1	461
c1ccc2c(-c3coc(C4CCNCC4)n3)c[nH]c2c1	476
Clc1ccc(-c2nc(-c3c[nH]c4ccccc34)co2)cc1	505
C=Cc1nc(-c2c[nH]c3ccccc23)co1	530
